The text below walks through data of patent US8815919B2, “Oxadiazole derivatives” (Merck Serono SA, priority 2009, dated 2014).

Assay [1] has as its target T1, S1P1 (Homo sapiens, UniProt P21453). Description: S1P1 internalization assay in S1P1-U2OS cells (S1P1-EGFP), cell imaging. Also noted: host or cells: U2OS (human bone osteosarcoma epithelial cells), CMV promoter, geneticin selection. It is filed as cell-based. Conditions: 1 hour incubation. How it is done:
Cellular functional assays: Internalization of Sphingosine-1-phosphate receptor 1 (S1P1) in a human Cell line (U2OS) in a 384-well format using a Cell Imaging analysis. • Jo, E.; Sanna, M. G.; Gonzalez-Cabrera, P. J.; Thangada, S.; Tigyi, S.; Osborne, D. A.; Hla, T.; Parrill, A. L.; Rosen, H. Chem. Biol. 2005, 12, 703
The S1P1 internalization assay was performed in 384 well plates (Corning® 384 black with clear bottom 3712) using S1P1-U2OS cells from Biolmage (C039A), a human epithelial cell line (Human Bone Osteosarcoma Epithelial Cells). These cells expressed the human S1P1 Receptor fused to the green fluorescent protein (EGFP). A standard CMV promoter (cytomegalovirus promoter) controls the expression of S1P1-EGFP and continuous expression was maintained by addition of geneticin to the culture medium.
S1P1 Receptor desensitization induced the internalization of the membrane-localized S1P1-EGFP fusion protein to endosomes, which can be monitored by cell imaging analysis. The cells are plated in low serum medium (Dulbecco's Modified Eagle Medium (DMEM) with Glutamax-1 and high glucose, 1% Penicillin/Streptomycin, 1% Fetal Calf Serum (FCS), 0.5 mg/ml Geneticin) overnight.
The next day, S1P1-U2OS cells are incubated in 20 μl serum free medium (DMEM with Glutamax-1 and high glucose, 0.1% of fatty-acid free Bovin Serum Albumin (BSA), 10 mM, N′-2-Hydroxyethylpiperazine-N′-2 ethanesulphonic acid (HEPES) 1M) for 2 hours at 37° C./5% CO2. The cells are then treated with 4 μl compounds/agonists (6×/3% DMSO) for a total volume of 24 μl, and plates are incubated for 1 hour at 37° C./5% CO2.
S1P1-U2OS cells are fixed with 25 μl Paraformaldehyde 8% and stained with Hoechst 33345 dye (1:1000) for 20 minutes.
They were then washed 3 times with Phosphate Buffered Saline (PBS) and plates are sealed. The internalization of the receptor S1P1-EGFP is measured on Cellomics by calculating the “spot count per object” (“object” corresponds to nuclear and “spot” corresponds to S1P1-EGFP receptor). Internalization data were observed thanks to vHCS View and analyzed using Genedata® software.
Target sequence in this assay (P21453 whole entry): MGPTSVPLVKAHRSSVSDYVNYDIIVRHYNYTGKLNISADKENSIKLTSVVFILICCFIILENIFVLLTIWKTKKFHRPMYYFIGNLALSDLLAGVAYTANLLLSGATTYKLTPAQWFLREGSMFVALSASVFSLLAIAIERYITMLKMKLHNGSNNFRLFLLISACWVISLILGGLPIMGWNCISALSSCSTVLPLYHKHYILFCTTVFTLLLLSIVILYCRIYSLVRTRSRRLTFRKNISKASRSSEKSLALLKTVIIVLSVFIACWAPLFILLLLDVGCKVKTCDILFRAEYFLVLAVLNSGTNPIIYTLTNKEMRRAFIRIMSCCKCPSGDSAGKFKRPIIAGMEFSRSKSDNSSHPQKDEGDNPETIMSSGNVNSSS

A further assay concerns the target S1P3 (Homo sapiens, UniProt Q99500). Put plainly: Receptor binding assay, [33P]sphingosine 1-phosphate competition, S1P3 membranes, WGA SPA beads. As to the method:
(§1) Membranes were prepared from CHO cells expressing S1P1 or S1P3 for use in ligand and […] binding studies. Cells were suspended in 50 mM TRIS, pH 7.4, 2 mM EDTA, 250 mM Sucrose (buffer A) and 1× Complete protease inhibitor cocktail (Roche), and disrupted at 4° C. by N2 decompression using a cell disruption bomb (Parr Instrument). Following centrifugation at 1000 RPM for 10 min at 4° C., the supernatant was diluted (2×) in buffer A and centrifuged again at 19000 RPM for 75 min at 4° C. The pellet was then suspended in 10 mM HEPES, pH 7.4, 1 mM EDTA, 250 mM Sucrose (Buffer B), and 1× Complete EDTA-free protease inhibitor cocktail and homogenized using a potter. Membranes were flash frozen in liquid N2 and stored at −80° C.
(§2) Receptor binding assay: [33P]sphingosine 1-phosphate (3000 Ci/mmol; American Radiolabeled Chemicals, Inc.) was added to test compounds in 20% DMSO by competition. Membranes and WGA SPA beads (GE Healthcare) were added to give a final volume of 100 μl in 96-well plates or 50 μl in 384-well plates with assay concentrations of […] [33P]sphingosine 1-phosphate (respectively for S1P1 or S1P3), 50 mM HEPES, pH 7.5, 5 mM MgCl2, 100 mM NaCl, 0.4% fatty acid-free BSA, 1-5 μg/well of proteins in 96-well plates vs 0.6-1 μg/well of proteins in 384-well plates and 100 μg/well of WGA SPA beads in 96-well plates vs 75 μg/well of WGA SPA beads in 384-well plates. Binding was performed for 60 min at RT on a shaker and bound radioactivity was measured on a PerkinElmer 1450 MicroBeta counter. Triplicate samples were averaged and normalized as percentage of inhibition relative to total binding (only DMSO in well) and nonspecific binding (1000-fold excess of unlabeled S1P). Binding data were analyzed using the GraphPad Prism program or Genedata software.

The target in assay [2] is T1, S1P1. Put plainly: Receptor binding assay, [33P]sphingosine 1-phosphate competition, S1P1 membranes, WGA SPA beads. How it is done: as §1, §2
Target sequence in this assay (P21453 whole entry, species assumed): as the sequence (P21453 whole entry) above
Where [3] appears, read: 96 well-plate, read-out: S1P3 binding Ki (M) (96 well-plate).
Where [4] appears, read: 384 well-plate, read-out: S1P3 binding Ki (M) (384 well-plate).
The mark [5] stands for this setting: 96 well-plate, read-out: S1P1 binding Ki (M) (96 well-plate).
Where [6] appears, read: 384 well-plate, read-out: S1P1 binding Ki (M) (384 well-plate).

Each structure is given as a SMILES string. Structures can show the parent of a compound that is named as a salt. Where two headings read alike, the source gives them in different places.

Sequence of S1P3 (Q99500 whole entry, species assumed): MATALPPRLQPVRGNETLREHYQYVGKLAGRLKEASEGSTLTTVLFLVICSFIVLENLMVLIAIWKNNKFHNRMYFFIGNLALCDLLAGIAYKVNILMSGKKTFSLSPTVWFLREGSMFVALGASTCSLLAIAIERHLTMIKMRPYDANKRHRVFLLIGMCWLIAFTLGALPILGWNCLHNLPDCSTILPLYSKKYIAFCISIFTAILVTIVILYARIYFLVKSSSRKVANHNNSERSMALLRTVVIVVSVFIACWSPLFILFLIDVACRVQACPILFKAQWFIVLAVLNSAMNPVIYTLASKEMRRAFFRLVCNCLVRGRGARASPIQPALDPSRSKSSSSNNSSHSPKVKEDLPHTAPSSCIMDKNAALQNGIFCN

In general, EC50 refers to the concentration needed to bring the measured effect to its halfway point. A higher EC50 goes with a need for much substance. Usually Ki stands for the dissociation constant of the complex between target and ligand, obtained from inhibition or displacement. Turning to `COCc1cc(-c2nc(-c3cccc(CN(C)CC(=O)O)c3)no2)ccc1-c1cc(F)ccc1Cl` [Example 65, N-(3-{5-[2′-chloro-5′-fluoro-2-(methoxymethyl)biphenyl-4-yl]-1,2,4-oxadiazol-3-yl}benzyl)-N-methylglycine, hydrochloride salt], the EC50 on S1P1 [1] was determined as 21.8 nM. The Ki on S1P3 (setting [3]) worked out at 2.31e-07 M; on S1P3 (setting [4]) it was 3.68e-07 M; on S1P1 [2] (setting [5]) it was 5.31e-10 M.
Regarding `COCc1cc(-c2nc(-c3cccc(CN(CCO)CCC(=O)O)c3)no2)ccc1-c1ccccc1C` [Example 66, N-(2-hydroxyethyl)-N-(3-{5-[2-(methoxymethyl)-2′-methylbiphenyl-4-yl]-1,2,4-oxadiazol-3-yl}benzyl)-beta-alanine, hydrochloride salt], the EC50 at S1P1 [1] is 44.9 nM. Further, the Ki was 1.4e-06 M on S1P3 (setting [4]), 5.36e-10 M on S1P1 [2] (setting [5]) and 2.42e-09 M on S1P1 [2] (setting [6]).
Compound `COCc1cc(-c2nc(-c3ccc(CN(C)CCC(=O)O)c(F)c3)no2)ccc1-c1ccccc1C` [Example 73, N-(2-fluoro-4-{5-[2-(methoxymethyl)-2′-methylbiphenyl-4-yl]-1,2,4-oxadiazol-3-yl}benzyl)-N-methyl-beta-alanine, hydrochloride salt] displayed an EC50 at S1P1 [1] of 1.27 nM. The Ki on S1P3 (setting [3]) came out at 4.95e-08 M; at S1P1 [2] (setting [5]), 1.07e-10 M.
For `COCc1cc(-c2nc(-c3ccc(CN(C)CCC(=O)O)cc3)no2)ccc1-c1ccccc1C` [Example 74, N-(4-{5-[2-(methoxymethyl)-2′-methylbiphenyl-4-yl]-1,2,4-oxadiazol-3-yl}benzyl)-N-methyl-beta-alanine, hydrochloride salt], in that order: 1.46 nM, 1.08e-07 M and 2.01e-10 M.
At S1P1 [1], `COCc1cc(-c2nc(-c3cc(F)cc(CN(C)CC(=O)O)c3)no2)ccc1-c1ccccc1` [Example 76] registered an EC50 of 5.36 nM. The Ki on S1P3 (setting [3]) was determined as 1.09e-08 M; on S1P1 [2] (setting [5]), 1.81e-10 M.
For `CCCN(CC(=O)O)Cc1cccc(-c2noc(-c3ccc(-c4ccccc4C)c(COC)c3)n2)c1` [Example 77, N-(3-{5-[2-(methoxymethyl)-2′-methylbiphenyl-4-yl]-1,2,4-oxadiazol-3-yl}benzyl)-N-propylglycine, hydrochloride salt], the EC50 at S1P1 [1] worked out at 52.6 nM. For the same compound, the inhibitory constant (Ki) on S1P3 (setting [3]) is 6.05e-07 M; at S1P1 [2] (setting [5]), 1.58e-09 M; on S1P1 [2] (setting [6]), 9.83e-10 M.
`CCN(CC(=O)O)Cc1cccc(-c2noc(-c3ccc(-c4ccccc4C)c(COC)c3)n2)c1` [Example 78, N-ethyl-N-(3-{5-[2-(methoxymethyl)-2′-methylbiphenyl-4-yl]-1,2,4-oxadiazol-3-yl}benzyl)glycine, hydrochloride salt] registered an EC50 at S1P1 [1] of 34.3 nM. The inhibition constant Ki at S1P3 (setting [3]) is 1.5e-07 M; on S1P3 (setting [4]) it was 3.54e-07 M; on S1P1 [2] (setting [5]), 4.41e-10 M; at S1P1 [2] (setting [6]), 2.47e-09 M.
`COCc1cc(-c2nc(-c3ccc(CN(C)CC(=O)O)c(OC)c3)no2)ccc1-c1ccccc1C` [Example 79, 2-((2-methoxy-4-(5-(2-(methoxymethyl)-2′-methylbiphenyl-4-yl)-1,2,4-oxadiazol-3-yl)benzyl)(methyl)amino)acetic acid, hydrochloride salt] displayed an EC50 on S1P1 [1] of 47.7 nM. Moreover, the Ki worked out at 4.84e-06 M at S1P3 (setting [3]), 2.69e-09 M on S1P1 [2] (setting [5]) and 5.33e-09 M on S1P1 [2] (setting [6]).
In the same order, the values of `COc1cc(-c2noc(-c3ccc(N4CCCCC4C)c(C(F)(F)F)c3)n2)ccc1CN(C)CC(=O)O` (stereo not shown) [Example 80, 2-((2-methoxy-4-(5-(4-(2-methylpiperidin-1-yl)-3-(trifluoromethyl)phenyl)-1,2,4-oxadiazol-3-yl)benzyl)(methyl)amino)acetic acid, hydrochloride salt] are 47 nM, 2.79e-06 M, 1.6e-09 M and 3.12e-09 M.
Turning to `COCc1cc(-c2nc(-c3ccc(CNCC(=O)O)c(F)c3)no2)ccc1-c1ccccc1F` [Example 82, N-(2-fluoro-4-{5-[2′-fluoro-2-(methoxymethyl)biphenyl-4-yl]-1,2,4-oxadiazol-3-yl}benzyl)glycine, hydrochloride salt], a half-maximal response at S1P1 [1] (EC50) required 1.73 nM. For the same compound, the Ki on S1P3 (setting [3]) worked out at 4.66e-08 M; on S1P3 (setting [4]), 5.24e-08 M; on S1P1 [2] (setting [5]), 5.42e-11 M; on S1P1 [2] (setting [6]) it was 3.74e-10 M.
In turn, `COCc1cc(-c2nc(-c3ccc(CNCC(=O)O)c(F)c3)no2)ccc1-c1ccccc1C` [Example 83, N-(2-fluoro-4-{5-[2-(methoxymethyl)-2′-methylbiphenyl-4-yl]-1,2,4-oxadiazol-3-yl}benzyl)glycine, hydrochloride salt] showed a 50% effective concentration (EC50) at S1P1 [1] of 1.2 nM. For the same compound, the Ki was found to be 1.01e-07 M on S1P3 (setting [3]), 2.75e-07 M on S1P3 (setting [4]), 7.39e-11 M on S1P1 [2] (setting [5]) and 1.8e-10 M on S1P1 [2] (setting [6]).
As to `Cc1ccccc1-c1ccc(-c2nc(-c3ccc(CNCCC(=O)O)cc3)no2)cc1C(F)(F)F` [Example 84], the EC50 on S1P1 [1] is 1.55 nM. Further, the Ki on S1P3 (setting [3]) worked out at 1.56e-07 M; at S1P3 (setting [4]) it was 1.73e-07 M; at S1P1 [2] (setting [5]), 1.43e-10 M; on S1P1 [2] (setting [6]), 3.77e-10 M.
`CC1CCCCN1c1ccc(-c2nc(-c3ccc(CN(C)CC(=O)O)c(F)c3)no2)cc1C(F)(F)F` (stereo not shown) [Example 85, N-(2-fluoro-4-{5-[4-(2-methylpiperidin-1-yl)-3-(trifluoromethyl)phenyl]-1,2,4-oxadiazol-3-yl}benzyl)-N-methylglycine, dihydrochloride salt] had an EC50 on S1P1 [1] of 13.6 nM. Besides, the Ki on S1P3 (setting [3]) is 1.77e-07 M; on S1P1 [2] (setting [5]), 3.16e-10 M; on S1P1 [2] (setting [6]) it was 9.74e-10 M.
The compound `COCc1cc(-c2nc(-c3cccc(CCN(C)CC(=O)O)c3)no2)ccc1-c1ccccc1C` [Example 86, [(2-{3-[5-(2-Methoxymethyl-2′-methyl-biphenyl-4-yl)-[1,2,4]oxadiazol-3-yl]-phenyl}-ethyl)-methyl-amino]-acetic acid] returned a half-maximal effective concentration (EC50) at S1P1 [1] of 4.98 nM. Also, the figures for the inhibition constant Ki at S1P3 (setting [3]), at S1P1 [2] (setting [5]) and at S1P1 [2] (setting [6]) were 3.18e-08 M, 1.46e-10 M and 4.97e-10 M, respectively.
`COCc1cc(-c2nc(-c3ccc(CCN(C)CC(=O)O)cc3)no2)ccc1-c1ccccc1C` [Example 87, [(2-{4-[5-(2-Methoxymethyl-2′-methyl-biphenyl-4-yl)-[1,2,4]oxadiazol-3-yl]-phenyl}-ethyl)-methyl-amino]-acetic acid] showed an EC50 at S1P1 [1] of 13.6 nM. Moreover, the Ki came out at 4.2e-07 M on S1P3 (setting [3]), 3.85e-07 M at S1P3 (setting [4]), 4.23e-10 M at S1P1 [2] (setting [5]) and 9.45e-10 M at S1P1 [2] (setting [6]).
`COCc1cc(-c2nc(-c3ccc(CN(C)CC(=O)O)cc3)no2)ccc1-c1cccc(F)c1C` [Example 90, N-(4-{5-[3′-fluoro-2-(methoxymethyl)-2′-methylbiphenyl-4-yl]-1,2,4-oxadiazol-3-yl}benzyl)-N-methylglycine, hydrochloride salt] registered an EC50 on S1P1 [1] of 4.46 nM. Besides, the inhibitory constant (Ki) on S1P3 (setting [3]) is 5.45e-07 M; at S1P3 (setting [4]) it was 8.49e-07 M; at S1P1 [2] (setting [5]) it was 2.78e-10 M; at S1P1 [2] (setting [6]), 8.65e-10 M.
